These results are taken from patent US5258382A, “Tetrahydropyrrolo[1,2-a]pyrazine-4-spiro-3'-pyrrolidine derivatives, processes for the preparation thereof and pharmaceutical compositions containing the same” (Dainippon Pharmaceutical Co., Ltd., priority 1991, dated 1993).

Where two headings read alike, the source gives them in different places.

Data set [1] relates to sorbitol accumulation. The experiment in a line: Inhibitory activity on sorbitol accumulation (in vivo), sciatic nerve of streptozotocin-diabetic rats. Conditions: for Inhibition (%) of sorbitol accumulation: oral, once a day for 5 days, sciatic nerve, 4 hours after final administration; for inhibitory activity on sorbitol accumulation relative to (±)-sorbinil: compared with (±)-sorbinil; for duration of effect: rat, in vivo. Set-up: species or system Male Wistar rats. On the procedure:
Male Wistar rats (200-250 g) were used in groups of 4 animals each. The rats were made diabetic by single i.v. injection of streptozotocin (40 mg/kg) freshly dissolved in physiological saline.
From one week after the induction of diabetes, the rats were orally given test compounds, suspended in 0.5% tragacanth solution, once a day for 5 days. […] The activity of test compounds was expressed as the inhibition percent of sorbitol accumulation ar given doses, which was calculated according to the following equation.
Inhibition %=(S-T)/(S-N)×100
S: Sorbitol content in sciatic nerve from diabetic control
T: Sorbitol content in sciatic nerve from diabetic rats given test compounds
N: Sorbitol content in sciatic nerve from normal rats.

Data set [2] has as its target T1, Aldose reductase (Sus scrofa, UniProt P80276).
T1 construct: Lenses isolated from porcine eyes (Tokyo Sibaura Zouki Co., Ltd., Japan) were homogenized; tissue Tokyo Sibaura Zouki Co., Ltd., Japan (porcine eyes); host or cells: porcine lens
The experiment in a line: Aldose reductase inhibitory activity (in vitro). It counts as biochemical, porcine. On the procedure: Lenses isolated from porcine eyes (Tokyo Sibaura Zouki Co., Ltd., Japan) were homogenized with 5 mM phosphate buffer (pH 7.4) containing 2 mM mercaptoethanol, and centrifuged at 10,200 g for 10 minutes. The supernatant was sequentially precipitated with ammonium sulfate at 30%, 40% and 60% saturation. The precipitate at 60% saturation was dissolved in a homogenizing buffer and used as a crude enzyme preparation. The unit of enzyme activity was defined as the amount of enzyme which oxidized 1 μmoles of NADPH/minute under the following assay condition.
The standard reaction mixture was composed of 100 mM phosphate buffer (pH 6.5), 0.2 mM NADPH, 1.5 mM D,L-glyceraldehyde, 0.4M lithium sulfate, enzyme solution (7.0 mU/ml) and test compounds at various concentrations. The reaction mixture was incubated at 37° C., and the decrease in absorbance at 340 nm was monitored by a spectrophotometer (Hitachi 150-20). The enzyme activity was calculated based upon the rate of decrease in the absorbance over a period of 1 minute from 1 minute after the onset of the enzyme reaction.

Data set [3] is described as follows: Acute toxicity, oral. Conditions: 1 g/kg oral, suspended in 0.5% tragacanth; observed for 7 days. An excerpt: Male ddY mice (18-25 g) were used in groups of 5 animals each. The compounds of Examples 1 (21) and 22, suspended in 0.5% tragacanth solution, were orally administered at a dose of 1 g/kg to the animals.
The mark [4] stands for this setting: crude enzyme from porcine lenses, D,L-glyceraldehyde 1.5 mM, NADPH 0.2 mM, pH 6.5, 37° C., read-out: IC50 (aldose reductase inhibitory activity).

On to `O=C1CC2(C(=O)N1)C(=O)N(Cc1ccc([N+](=O)[O-])cc1)C(=O)c1cccn12` (centres unmarked) [Example 15], for which the “Inhibition (%) of sorbitol accumulation” value in data set [1] (3.0 mg/kg/day) was determined as 7.4%; in data set [1] (30 mg/kg/day), 102.2%. Moreover, in data set [2] (setting [4]), the IC50 was 110 nM.

Regarding `O=C1CC2(C(=O)N1)C(=O)N(Cc1ccc(F)cc1)C(=O)c1cccn12` (centres unmarked) [Example 6], in data set [1] (30 mg/kg/day), the “Inhibition (%) of sorbitol accumulation” value turned out to be 55.8%. Also, the concentration for half-maximal inhibition (IC50) in data set [2] (setting [4]) was found to be 120 nM.

Consider `O=C1NC(=O)C2(CCOc3ccc(F)cc32)N1` (racemic) [(±)-Sorbinil, 6-fluoro-2,3-dihydrospiro[4H-1-benzopyran-4,4'-imidazolidine]-2',5'-dione, reference compound], for which the figures for the “Inhibition (%) of sorbitol accumulation” value in data set [1] (3.0 mg/kg/day) and in data set [1] (30 mg/kg/day) were 60.7% and 106.9%, respectively.

In the case of `O=C1CC2(C(=O)N1)C(=O)N(Cc1ccc(C(F)(F)F)cc1)C(=O)c1cccn12` (centres unmarked) [Example 9], in data set [2] (setting [4]), the IC50 amounted to 80 nM.

Consider `O=C1CC2(C(=O)N1)C(=O)N(Cc1ccccc1)C(=O)c1cccn12` (centres unmarked) [Example 3], for which the “Inhibition (%) of sorbitol accumulation” value in data set [1] (30 mg/kg/day) turned out to be 69.1%. Also, in data set [2] (setting [4]), the concentration for half-maximal inhibition (IC50) is 99 nM.

Turning to `COc1ccc(CN2C(=O)c3cccn3C3(CC(=O)NC3=O)C2=O)cc1OC` (centres unmarked) [Example 13], the 50% inhibitory concentration (IC50) in data set [2] (setting [4]) is 110 nM.

Turning to `O=C1CC2(C(=O)N1)C(=O)N(Cc1ccccc1F)C(=O)c1cccn12` (centres unmarked) [Example 4], the “Inhibition (%) of sorbitol accumulation” value in data set [1] (1.0 mg/kg/day) is recorded as 47.2%; in data set [1] (10 mg/kg/day), 73.5%. For the same compound, the “inhibitory activity on sorbitol accumulation relative to (±)-sorbinil” value in data set [1] was “equipotent to or more potent than (±)-sorbinil”. Further, the IC50 in data set [2] (setting [4]) stood at 61 nM.

`Cc1ccc(CN2C(=O)c3cccn3C3(CC(=O)NC3=O)C2=O)cc1` (centres unmarked) [Example 11]: in data set [1] (30 mg/kg/day), the “Inhibition (%) of sorbitol accumulation” value was found to be 65.8%. Also, the IC50 in data set [2] (setting [4]) worked out at 52 nM.

`O=C1CC2(C(=O)N1)C(=O)N(Cc1ccc(Br)cc1F)C(=O)c1cc(Cl)cn12` (centres unmarked) [Example 19, 2-(4-bromo-2-fluorobenzyl)-7-chloro-[1,2,3,4-tetrahydropyrrolo[1,2-a]pyrazine-4-spiro-3'-pyrrolidine]-1,2',3,5'-tetrone]: the IC50 in data set [2] (setting [4]) came to 50 nM.

For the compound `O=C1CC2(C(=O)N1)C(=O)N(Cc1ccc(Br)cc1F)C(=O)c1cccn12` (single isomer, unassigned) [Example 22, an enantiomer of 2-(4-bromo-2-fluorobenzyl)-[1,2,3,4-tetrahydropyrrolo[1,2-a]pyrazine-4-spiro-3'-pyrrolidine]-1,2',3,5'-tetrone], in data set [3], the mortality result is reported as “None of the mice died during this period”. The figures for the “Inhibition (%) of sorbitol accumulation” value in data set [1] (0.3 mg/kg/day) and in data set [1] (1.0 mg/kg/day) were 77.6% and 107.3%, respectively. Also, the “inhibitory activity on sorbitol accumulation relative to (±)-sorbinil” value in data set [1] is “equipotent to or more potent than (±)-sorbinil”. Besides, in data set [1], the duration of effect result was “long-lasting”. In addition, in data set [2], the half-maximal inhibitory concentration (IC50) is 39 nM.

As to `CC(=C\c1ccccc1)/C=C1/SC(=S)N(CC(=O)O)C1=O` [Epalrestat, (E,E)-5-(2-methyl-3-phenyl-2-propenylidene) 4-oxo-2-thioxo-3-thiazolidineacetic acid, reference compound], in data set [1] (200 mg/kg/day), the “Inhibition (%) of sorbitol accumulation” value was 5.7%. This compound also showed an IC50 in data set [2] of 73 nM.

As for `O=C1CC2(C(=O)N1)C(=O)N(Cc1ccccc1Br)C(=O)c1cccn12` (centres unmarked) [Example 17], the IC50 in data set [2] (setting [4]) worked out at 52 nM.

Consider `O=C1CC2(C(=O)N1)C(=O)N(Cc1ccc(Br)cc1)C(=O)c1cccn12` (centres unmarked) [Example 8, 2-(4-bromobenzyl)-[1,2,3,4-tetrahydropyrrolo[1,2-a]pyrazine-4-spiro-3'-pyrrolidine]-1,2',3,5'-tetrone], for which the “Inhibition (%) of sorbitol accumulation” value in data set [1] (3.0 mg/kg/day) was found to be 104.7%. In addition, the “inhibitory activity on sorbitol accumulation relative to (±)-sorbinil” value in data set [1] was “equipotent to or more potent than (±)-sorbinil”. For the same compound, the half-maximal inhibitory concentration (IC50) in data set [2] (setting [4]) is 47 nM.

Turning to `O=C1CC2(C(=O)N1)C(=O)N(Cc1cccc(Br)c1)C(=O)c1cccn12` (centres unmarked) [Example 18], in data set [2] (setting [4]), the 50% inhibitory concentration (IC50) is 37 nM.

As for `O=C1CC2(C(=O)N1)C(=O)N(Cc1ccc(Br)cc1F)C(=O)c1cccn12` (centres unmarked) [Example 1, 2-(4-bromo-2-fluorobenzyl)-[1,2,3,4-tetrahydropyrrolo[1,2-a]pyrazine-4-spiro-3'-pyrrolidine]-1,2',3,5'-tetrone], the mortality result in data set [3] is listed as “None of the mice died during this period”. Also, the “Inhibition (%) of sorbitol accumulation” value in data set [1] (1.0 mg/kg/day) amounted to 104.7%; in data set [1] (30 mg/kg/day), 114.6%. Besides, in data set [1], the “inhibitory activity on sorbitol accumulation relative to (±)-sorbinil” value was “equipotent to or more potent than (±)-sorbinil”. Further, in data set [1], the duration of effect result was “long-lasting”. In data set [2], this compound had an IC50 of 50 nM.

As for `O=C1CC2(C(=O)N1)C(=O)N(Cc1ccccc1Cl)C(=O)c1cccn12` (centres unmarked) [Example 2, 2-(2-chlorobenzyl)-[1,2,3,4-tetrahydropyrrolo[1,2-a]pyrazine-4-spiro-3'-pyrrolidine]-1,2',3,5'-tetrone], the results for the “Inhibition (%) of sorbitol accumulation” value in data set [1] (3.0 mg/kg/day) and in data set [1] (30 mg/kg/day) were 30.5% and 97.1%, respectively. For the same compound, the IC50 in data set [2] (setting [4]) came out at 33 nM.

Regarding `COc1ccc(CN2C(=O)c3cccn3C3(CC(=O)NC3=O)C2=O)cc1` (centres unmarked) [Example 12], in data set [2] (setting [4]), the IC50 is 46 nM.

Turning to `O=C1CC2(C(=O)N1)C(=O)N(Cc1ccc(Br)cc1F)C(=O)c1ccc(Cl)n12` (centres unmarked) [Example 27, 2-(4 bromo-2-fluorobenzyl)-6-chloro-[1,2,3,4-tetrahydropyrrolo[1,2-a]pyrazine-4-spiro-3'-pyrrolidine]-1,2',3,5-tetrone], the IC50 in data set [2] (setting [4]) is 35 nM.

For `O=C1CC2(C(=O)N1)C(=O)N(Cc1ccc(Br)cc1F)C(=O)c1cc(Br)cn12` (centres unmarked) [Example 20, 7-bromo-2-(4-bromo-2-fluorobenzyl)-[1,2,3,4-tetrahydropyrrolo[1,2-a]pyrazine-4-spiro-3'-pyrrolidine]-1,2',3,5'-tetrone], the IC50 in data set [2] (setting [4]) was found to be 100 nM.

On to `O=C1CC2(C(=O)N1)C(=O)N(Cc1ccc(Cl)cc1F)C(=O)c1cccn12` (centres unmarked) [Example 16, 2-(4 chloro 2-fluorobenzyl)-[1,2,3,4-tetrahydropyrrolo[1,2-a]pyrazine-4-spiro-3'-pyrrolidine]-1,2',3,5'-tetrone], for which the “Inhibition (%) of sorbitol accumulation” value in data set [1] (1.0 mg/kg/day) is 61.0%. For the same compound, the “inhibitory activity on sorbitol accumulation relative to (±)-sorbinil” value in data set [1] is “equipotent to or more potent than (±)-sorbinil”. Further, the IC50 in data set [2] (setting [4]) is 41 nM.

Turning to `O=C1CC2(C(=O)N1)C(=O)N(Cc1cccc(Cl)c1)C(=O)c1cccn12` (centres unmarked) [Example 5], the figures for the “Inhibition (%) of sorbitol accumulation” value in data set [1] (3.0 mg/kg/day) and in data set [1] (30 mg/kg/day) were 44.2% and 99.4%, respectively. Besides, in data set [1], the “inhibitory activity on sorbitol accumulation relative to (±)-sorbinil” value was “equipotent to or more potent than (±)-sorbinil”. Besides, the half-inhibitory concentration (IC50) in data set [2] (setting [4]) was 31 nM.

Turning to `O=C1CC2(C(=O)N1)C(=O)N(Cc1ccc(F)cc1F)C(=O)c1cccn12` (centres unmarked) [Example 10], the “Inhibition (%) of sorbitol accumulation” value is on record as 33.3% in data set [1] (3.0 mg/kg/day) and 98.0% in data set [1] (30 mg/kg/day). Besides, in data set [2] (setting [4]), the concentration for half-maximal inhibition (IC50) is 72 nM.

Take `O=C1CC2(C(=O)N1)C(=O)N(Cc1ccc(Br)cc1F)C(=O)c1ccc(Br)n12` (centres unmarked) [Example 26, 6-bromo-2-(4-bromo-2-fluorobenzyl)-[1,2,3,4-tetrahydropyrrolo[1,2-a]pyrazine-4-spiro-3'-pyrrolidine]-1,2',3,5'-tetrone]: the IC50 in data set [2] (setting [4]) was found to be 40 nM.

Regarding `O=C1CC2(C(=O)N1)C(=O)N(Cc1ccc(Cl)c(Cl)c1)C(=O)c1cccn12` (centres unmarked) [Example 24, 2-(3,4-dichlorobenzyl)-[1,2,3,4-tetrahydropyrrolo[1,2-a]pyrazine-4-spiro-3'-pyrrolidine]-1,2',3,5'-tetrone], the “Inhibition (%) of sorbitol accumulation” value in data set [1] (1.0 mg/kg/day) came out at 70.9%; in data set [1] (30 mg/kg/day) it was 111.8%. Further, the “inhibitory activity on sorbitol accumulation relative to (±)-sorbinil” value in data set [1] was “equipotent to or more potent than (±)-sorbinil”. Besides, the IC50 in data set [2] (setting [4]) turned out to be 23 nM.

`O=C1CC2(C(=O)N1)C(=O)N(Cc1ccc(Cl)cc1)C(=O)c1cccn12` (centres unmarked) [Example 7]: the “Inhibition (%) of sorbitol accumulation” value in data set [1] (3.0 mg/kg/day) is reported as 69.7%; in data set [1] (30 mg/kg/day), 104.6%. Moreover, the “inhibitory activity on sorbitol accumulation relative to (±)-sorbinil” value in data set [1] is given as “equipotent to or more potent than (±)-sorbinil”. Also, the IC50 in data set [2] (setting [4]) was determined as 33 nM.

By IC50 is commonly meant the concentration needed to halve the response being measured.
